What was measured:
[1] = OLINDA/EXM dosimetry estimates; set-up: species or system human (70 kg standard man model)
Excerpt: Rat absorbed dose estimates for ^99mTc-N4-Tyrosine were computed from biodistribution data. Individual organ and whole-body time-activity curves were fitted to exponential functions using OLINDA/EXM software (version 1.1; Vanderbilt University, Nashville, TN, USA). These functions were then integrated analytically to determine the area under the curve to yield the residence time of ^99mTc-N4-Tyrosine in each organ. It was assumed that the injected activity of ^99mTc-N4-Tyrosine was uniformly distributed throughout the body immediately following injection. Mass correction factors were used to account for the different ratios of organs to total body weight and different scaling of residence times between rats and humans. Residence times were then used to calculate target organ absorbed radiation doses for a 70 kg standard man model using the OLINDA/EXM software.

[2] = test system: breast tumor cell line 13762 tumors; assay: Planar scintigraphic imaging in breast tumor-bearing rats; type: in vivo, Fischer 344 rats; details: for Tumor %ID (percent of injected dose in the tumor) / tumor-to-muscle (T/M) ratio: i.v. 300 μCi/rat
Experimental: Cells from the breast tumor cell line 13762, suspended in phosphate-buffered solution (10^5 cells/0.1 mL solution per rat), were injected subcutaneously into the right calf muscle of female Fischer 344 rats (n = 9). Planar scintigraphic imaging of ^99mTc-N4-Tyrosine was performed 12–14 days after inoculation when tumors reached approximately 1 cm in diameter. The breast tumor-bearing rats (n = 3/time point) were anesthetized and injected intravenously with ^99mTc-N4-Tyrosine (0.3 mg/rat, 300 μCi/rat), and images were acquired at 30, 120, and 240 minutes after administration of tracers. Planar scintigraphic images were obtained using M-CAM (Siemens Medical Solutions, Hoffman Estates, IL, USA) equipped with a low-energy high-resolution collimator. Computer-outlined regions of interest (ROIs in counts per pixel) between tumor and muscle tissue were used to calculate tumor-to-muscle (T/M) ratios. Percent of injected dose (%ID) in the tumor was also calculated from the reference standard, which was 1/10 of the original injection activity of ^99mTc-N4-Tyrosine.

[3] = test system: breast tumor (13762) and turpentine oil-induced inflammation; assay: Tumor and inflammation uptake comparison, planar scintigraphy; type: in vivo, Fischer 344 rats; details: tumor- and inflammation-bearing rats
Experimental: To investigate whether ^99mTc-N4-Tyrosine can differentiate tumor tissue from inflammatory tissue, a rat model bearing both a mammary tumor and tissue with turpentine oil-induced inflammation was created. Rat breast tumor cells (from cell line 13762; 10^5 cells/0.1 mL phosphate-buffered solution per rat) were injected into the right calf muscles of 3 female Fischer 344 rats. After the tumors reached 1 cm in diameter, turpentine oil (0.1 mL/rat) was injected into the left calf muscles of the rats to induce inflammation. The anesthetized rats were injected intravenously with ^99mTc-N4-Tyrosine 24 hours after the turpentine injection. Planar scintigraphic images were acquired at 30, 120, and 240 minutes after the ^99mTc-N4-Tyrosine injection, and ROIs of the tumor, inflamed tissue, and muscle were used to calculate the tumor-to-muscle ratios (T/Ms), inflammation-to-muscle ratios (I/Ms), and tumor-to-inflammation ratios (T/Is), respectively. The same animal model was used to evaluate ^18F-FDG. Micro-PET imaging of ^18F-FDG was performed using an R4 micro-PET scanner (Concorde Microsystems, Knoxville, TN, USA). Three breast tumor- and inflammation-bearing rats were injected intravenously with ^18F-FDG (500 μCi/rat), and dynamic PET scans with a spatial resolution of 2.2 mm were obtained at 30, 60, and 90 minutes after ^18F-FDG injection. PET images were reconstructed by using the ordered subset expectation maximization (OSEM) algorithm. T/M, I/M, and T/I ratios were calculated using the regional radioactivity concentrations (μCi/cm^3) that were estimated from the average pixels within ROIs drawn around the tumor, inflamed tissue, or muscle on transverse slices of the reconstructed image sets.

[4] = 15 mCi per patient, 70 kg adult man

^99mTc-O-[3-(1,4,8,11-tetraazabicyclohexadecane)-propyl]-tyrosine [^99mTc-N4-Tyrosine]
Human dose (15 mCi), Adrenals [1, 4]: 2.58E − 01 rem | Human dose (15 mCi), Brain [1, 4]: 2.61E − 02 rem | Human dose (15 mCi), Breasts [1, 4]: 7.08E − 02 rem | Human dose (15 mCi), Effective dose [1, 4]: 1.22E − 01 rem | Human dose (15 mCi), Effective dose equivalent [1, 4]: 3.17E − 01 rem | Human dose (15 mCi), Gallbladder wall [1, 4]: 2.10E − 01 rem | Human dose (15 mCi), Heart wall [1, 4]: 4.73E − 01 rem | Human dose (15 mCi), Kidneys [1, 4]: 2.70E + 00 rem | Human dose (15 mCi), Liver [1, 4]: 3.06E − 01 rem | Human dose (15 mCi), Lower large intestine wall [1, 4]: 9.00E − 02 rem | Human dose (15 mCi), Lungs [1, 4]: 1.26E − 01 rem | Human dose (15 mCi), Muscle [1, 4]: 7.44E − 02 rem | Human dose (15 mCi), Osteogenic cells [1, 4]: 2.90E − 01 rem | Human dose (15 mCi), Ovaries [1, 4]: 9.80E − 02 rem | Human dose (15 mCi), Pancreas [1, 4]: 2.09E − 01 rem | Human dose (15 mCi), Red marrow [1, 4]: 1.06E − 01 rem | Human dose (15 mCi), Skin [1, 4]: 4.95E − 02 rem | Human dose (15 mCi), Small intestine [1, 4]: 1.50E − 01 rem | Human dose (15 mCi), Spleen [1, 4]: 3.14E − 01 rem | Human dose (15 mCi), Stomach wall [1, 4]: 1.38E − 01 rem | Human dose (15 mCi), Testes [1, 4]: 4.40E − 02 rem | Human dose (15 mCi), Thymus [1, 4]: 1.27E − 01 rem | Human dose (15 mCi), Thyroid [1, 4]: 6.92E − 02 rem | Human dose (15 mCi), Total Body [1, 4]: 1.10E − 01 rem | Human dose (15 mCi), Upper large intestine wall [1, 4]: 1.36E − 01 rem | Human dose (15 mCi), Urinary bladder wall [1, 4]: 7.71E − 02 rem | Human dose (15 mCi), Uterus [1, 4]: 9.80E − 02 rem | Total rem absorbed by each organ versus US FDA limits for radioactive research drugs ([1]; proposed injection of 15 mCi per patient): below these limits | tumor detection by planar scintigraphic imaging ([2]; all time points (30, 120, 240 minutes)): clearly detected | Tumor %ID (percent of injected dose in the tumor) ([2]; 30 minutes): 1.82 %ID | tumor-to-muscle (T/M) ratio ([2]; 30 minutes): 5.12 | Tumor %ID (percent of injected dose in the tumor) ([2]; 120 minutes): 1.87 %ID | tumor-to-muscle (T/M) ratio ([2]; 120 minutes): 4.88 | Tumor %ID (percent of injected dose in the tumor) ([2]; 240 minutes): 1.71 %ID | tumor-to-muscle (T/M) ratio ([2]; 240 minutes): 5.2 | inflammation-to-muscle (I/M) ratio ([3]; 30 min): 4.26 | tumor-to-inflammation (T/I) ratio ([3]; 30 min): 1.2 | tumor-to-muscle (T/M) ratio ([3]; 30 min): 5.12 | inflammation-to-muscle (I/M) ratio ([3]; 120 min): 3.62 | tumor-to-inflammation (T/I) ratio ([3]; 120 min): 1.14 | tumor-to-muscle (T/M) ratio ([3]; 120 min): 4.11 | inflammation-to-muscle (I/M) ratio ([3]; 240 min): 2.45 | tumor-to-inflammation (T/I) ratio ([3]; 240 min): 1.32 | tumor-to-muscle (T/M) ratio ([3]; 240 min): 3.24 | tumor-to-inflammation (T/I) ratios ([3]; all time points): greater than 1

Reference: paper PMC3303751, “Development of Tyrosine-Based Radiotracer ^99mTc-N4-Tyrosine for Breast Cancer Imaging” (Journal of Biomedicine and Biotechnology, 2012)
